Experimental data from PubChem BioAssay AID1648 (Sanford-Burnham Center for Chemical Genomics, 2009).
The source made the active and inactive calls. The rule behind the calls is not given here.

Each compound was assayed against Serine/threonine-protein kinase mTOR (Homo sapiens) (UniProt P42345) (assay: binders of mTOR FRB domain, biophysical, NMR (AID 1648)). Conditions: NMR binding to FRB domain, chemical shift.
Sequence of Serine/threonine-protein kinase mTOR (Homo sapiens) (P42345 2015-2114): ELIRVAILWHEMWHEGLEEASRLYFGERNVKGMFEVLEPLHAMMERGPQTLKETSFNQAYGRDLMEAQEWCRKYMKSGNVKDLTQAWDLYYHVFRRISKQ

| SMILES | Kd |
| --- | --- |
| CN(C)C(=O)Nc1ccc2c(c1)nnn2C | > 4 mM (inactive) |
| FC(F)(F)c1cc(-c2ccco2)nc(N2CCOCC2)n1 | > 4 mM (inactive) |
| S=c1[nH]nc(-c2cccnc2)n1C1CCCCC1 | > 4 mM (inactive) |
| O=C1NC(=O)C(C(=S)Nc2ccccc2)C(=O)N1 | > 4 mM (inactive) |
| Cc1occc1C(=O)Nc1ccc(C(N)=O)cc1 | > 4 mM (inactive) |
| Cc1ccc2nc(NC(=O)CN3CCOCC3)sc2c1 | > 4 mM (inactive) |
| O=c1[nH]cc(NC(=S)N2CCOCC2)c(=O)[nH]1 | > 4 mM (inactive) |
| O=c1[nH]cnc2c1nnn2Cc1ccccc1 | > 4 mM (inactive) |
| NC(CSCSCC(N)C(=O)O)C(=O)O (centres undefined) | > 4 mM (inactive) |
| Cc1cc(C)n2c(SCc3c(C)noc3C)nnc2n1 | > 4 mM (inactive) |
| CC(C)/C(O)=C1/C(=O)O[C@@H](c2ccoc2)[C@]2(C)C(O)[C@@H](O)[C@@]34OC5(C)OC67CC(C)(C(O)[C@]6(O)[C@@H](O)[C@]3(O5)C12)[C@H](CC(=O)O)[C@]74C (some centres undefined) | > 4 mM (inactive) |
| COc1ccc(-c2cc(=O)c3c(O)cc(O)c(-c4cc(-c5cc(=O)c6c(O)cc(O)cc6o5)ccc4OC)c3o2)cc1 | > 4 mM (inactive) |
| Cc1nc2nc(Cc3ccccc3)nn2c(C)c1Cl | > 4 mM (inactive) |
| CSc1nc(-c2ccco2)nn1S(C)(=O)=O | > 4 mM (inactive) |
| CCOc1nc(C)ccc1-c1noc(-c2ccco2)n1 | > 4 mM (inactive) |
| CC1CC2(NC(=O)NC2=O)C(C)CN1C (centres undefined) | > 4 mM (inactive) |
| Cc1cc(O)c(C)c(O)c1C(=O)O | > 4 mM (inactive) |
| C=C1C(N)CC2CC1C2(C)C (centres undefined) | > 4 mM (inactive) |
| Cc1nnc2ccc(N3CCCC3)nn12 | > 4 mM (inactive) |
| OCCCc1nc2ccc(C(F)(F)F)cc2[nH]1 | > 4 mM (inactive) |

| SMILES | Kd |
| --- | --- |
| CC1(C)Cc2c(C#N)c(N)n(-c3ccccc3)c(=O)c2CO1 | > 4 mM (inactive) |
| O=C(Nc1ccc(Cl)cn1)c1cnn2cccnc12 | > 4 mM (inactive) |
| CNC(=O)c1c(O)c2ccccc2[nH]c1=O | > 4 mM (inactive) |
| CC(C)=CC(=O)Nc1ccccc1Br | > 4 mM (inactive) |
| CN1CCN(C(=O)c2ccccc2N)CC1 | > 4 mM (inactive) |
| COc1ccc(C)cc1S(N)(=O)=O | > 4 mM (inactive) |
| O=C(NN=C1CCCC1)c1ccncc1 | > 4 mM (inactive) |
| O=C1COc2cc(O)ccc21 | > 4 mM (inactive) |
| Cc1nn2c(nc1=O)SCC(c1ccccc1)=N2 | > 4 mM (inactive) |
| OCn1nnn(-c2ccccc2)c1=S | > 4 mM (inactive) |
| COc1ccc(Cl)cc1-c1n[nH]c(=S)n1C | > 4 mM (inactive) |
| CN(c1ccc(C(=O)N2CCCCC2)cc1)S(C)(=O)=O | > 4 mM (inactive) |
| Cc1ccc(/C=C2/NC(=S)NC2=O)s1 | > 4 mM (inactive) |
| COc1ccccc1NC(=O)CCC(=O)O | > 4 mM (inactive) |
| COC(=O)c1cccc2cc[nH]c12 | > 4 mM (inactive) |
| COc1ccc2c(CC(=O)O)coc2c1 | > 4 mM (inactive) |
| O=c1c2ccccc2nc2n1CCC2O (centres undefined) | > 4 mM (inactive) |
| NC(=O)CCN1C(=O)c2ccccc2C1=O | > 4 mM (inactive) |
| CC(=O)c1cccc(NS(=O)(=O)N2CCCCC2)c1 | > 4 mM (inactive) |
| COc1cc(C(=O)NCC2CCCO2)cc(OC)c1OC (centres undefined) | > 4 mM (inactive) |

| SMILES | Kd |
| --- | --- |
| CC(=O)c1cnc2nc(C(F)(F)F)nn2c1C | > 4 mM (inactive) |
| Cc1ccc(S(=O)(=O)CC(=O)N(C)C)cc1 | > 4 mM (inactive) |
| CC(=O)c1cc(CN2C(=O)c3ccccc3C2=O)cs1 | > 4 mM (inactive) |
| O=C(CC1SC(=O)NC1=O)Nc1ccccc1 (centres undefined) | > 4 mM (inactive) |
| OCc1ccc(-c2ccccn2)s1 | > 4 mM (inactive) |
| OC1CCNC2CCCCC12 (centres undefined) | > 4 mM (inactive) |
| C=C1CCC(C2CC(=O)OC2=O)C(=O)CCC2C1CC2(C)C (centres undefined) | > 4 mM (inactive) |
| C[C@H]1CCCC(=O)CCC/C=C/c2cc(O)cc(O)c2C(=O)O1 | > 4 mM (inactive) |
| CSc1ccccc1C(=O)N1CCOCC1 | > 4 mM (inactive) |
| Nc1nc2[nH]c(=O)c(=O)[nH]c2c(=O)[nH]1 | > 4 mM (inactive) |
| O=C(O)c1ccc(-c2cnco2)cc1 | > 4 mM (inactive) |
| CC1(C)C[C@@H]2C(=O)CC[C@H]3O[C@]3(C)CC[C@H]21 | > 4 mM (inactive) |
| CC(C)Nc1nc2n(c(=O)n1)CCN2C(C)C | > 4 mM (inactive) |
| CCCS(=O)(=O)N1CCN(c2ccccn2)CC1 | > 4 mM (inactive) |
| O=C(/C=C(\O)c1ccccc1)c1ccccc1O | > 4 mM (inactive) |
| COC(=O)c1ccc2ncccc2c1 | > 4 mM (inactive) |
| CCCc1nc2ccccc2c2nc(N)nn12 | > 4 mM (inactive) |
| Cc1noc(C)c1C(=O)N1CCc2ccccc21 | > 4 mM (inactive) |
| O=C(c1nc2ccccc2s1)N1CCSCC1 | > 4 mM (inactive) |
